Consider 1 molecule from patent publication US11352360B2, “TGF-beta inhibitors” (Rigel Pharmaceuticals, Inc., priority 2015, dated 2022).

In assay [1] the test system is TGF-β signaling (p-SMAD-3 Ser423/425). As to the kind of experiment: AlphaScreen SureFire SMAD3 (p-Ser423/425) assay, TGF-β-stimulated. Type of assay: cell-based. The following applies: inhibition of TGF-β signaling, pSMAD, MPC-11. A general note: In Alpha technology, singlet oxygen from a donor bead excites a nearby acceptor bead.
Assay [2] concerns GDF8 signaling (p-SMAD-3 Ser423/425). As to the kind of experiment: AlphaScreen SureFire SMAD3 (p-Ser423/425) assay, GDF8-stimulated. Type of assay: cell-based. The following applies: inhibition of GDF8 signaling, pSMAD, MPC11; read-out: GDF8 (GDF pSMAD (MPC11)).

For the molecule `COc1ccc(-c2nc(N)sc2-c2ccc3[nH]ncc3c2)cc1` [Compound 157, 5-(1H-indazol-5-yl)-4-(4-methoxyphenyl)thiazol-2-amine], the IC50 in assay [1] amounted to 160 nM; in assay [2] it was 25.6 nM.
